Measured values published in patent US7498029B2, “Photoimmunotherapies for cancer using combination therapies” (The General Hospital Corporation, priority 2001, dated 2009).
“Also recorded” adds a separate entry of the source.

Experiments:
[1] = Solubility and stability in DMSO/aqueous solutions and on storage; assay type: physicochemical; details: DMSO/aqueous solution
[2] = molecular target: T1, EGFR (Homo sapiens, UniProt P00533); assay: EGF-induced EGFR phosphorylation, Western blot in OVCAR 5 cells; assay type: cell-based; details: 10 ng/ml EGF 15 min
T1 construct: endogenous in cells; host or cells: OVCAR 5 cells
Method: (§1) Twenty-four hours after photodynamic treatment as described above, OVCAR 5 cells in the groups to be stimulated with EGF were incubated for 15 min with 10 ng/ml EGF in prewarmed culture medium. The groups that were not stimulated with EGF only received prewarmed culture medium. After the 15 minute incubation, cells were kept on ice and cell lysates were collected in RIPA buffer (containing 0.1% SDS and 1% NP-40). After protein determination by a modified Lowry assay (Biorad, Hercules, Calif.), the proteins were run on SDS-PAGE, transferred to a polyvinylidene diflouride (PVDF) membrane (Immobilon-P, Millipore, Bedford, Mass.) and probed with the first antibody. To detect the phosphorylation of the EGFR, the anti-phosphotyrosine antibody 4G10 (New England Biolabs; Beverly, Mass.) was used. A secondary goat anti-mouse antibody, coupled to horseradish peroxidase (Biorad), was used in combination with a chemiluminescence kit (Amersham, Arlington Heights, Ill.) to visualize the specific bands. Western blots were reprobed with anti-actin (Santa Cruz Biotechnology, Santa Cruz, Calif.) to control for equal loading.

[3] = test system: OVCAR-5 cells; assay: PDT/PIT phototoxicity, MTT assay, OVCAR-5 cells; assay type: cell-based, human; details: with light, dose giving 50% survival after 24 hours, compared to control cells
Method: (§2) This light was focused to a spot of 3.5 cm diameter, which corresponded to a power density of circa 40 mW/cm^2.
(§3) To determine the survival fraction of cells after treatment, the 3-(4,5-dimethylthiazol-2-yl)-2,5-diphenyltetrazolium bromide (“MTT”) assay, which measured mitochondrial dehydrogenase activity, was used. Cells were incubated with 0.5 mg/ml MTT for 1 hour to measure its reduction by mitochondrial dehydrogenases.
The MTT assay was performed 24 and 72 hours after treatment.

[4] = Fluorescence decay and relative fluorescence quantum yield; assay type: physicochemical; details: 50% DMSO/50% aqueous solution
Method: In order to assess how conjugation to the antibody affected the ability of BPD to generate phototoxic species, relative fluorescence quantum yields and fluorescence decay signals for free BPD and for the various BPD PIC preparations were measured. Although fluorescence is a photophysical property of the singlet excited state of a photosensitizer, fluorescence quantum yields and decay times generally correlate with a photosensitizer's ability to generate phototoxic species. This correlation stems from the fact that a photosensitizer's phototoxic quantum yield usually correlates with its triplet quantum yield. […]
Fluorescence properties were measured in 50% DMSO/50% aqueous solutions in order to overcome the tendency of BPD to aggregate in a purely aqueous solution. Relative fluorescence quantum yields for free BPD and for various PIC samples with varying BPD:antibody molar loading ratios were calculated from the ratios of the slopes of fluorescence emission intensity versus absorbance plots. The fluorescence emission intensity versus absorbance plot for a given sample was generated by measuring the emission intensities of a series of dilute solutions prepared from a concentrated stock solution of the sample. […] Fluorescence emission intensity was measured as the area under the fluorescence emission peak in the 650 to 800 nm range. […]

[5] = test system: MAPK/ERK; assay: EGF-induced MAPK/ERK phosphorylation, Western blot in OVCAR-5 cells; assay type: cell-based, human
Method: as §1
(§4) Two important pathways which are regulated by EGFR are the PI3K-Akt/PKB-1 and the Ras-MAPK/ERK pathway. These signaling molecules are implicated in a variety oncogenic pathways. […]

[6] = test system: Akt-1; assay: EGF-induced Akt-1 phosphorylation, Western blot in OVCAR-5 cells; assay type: cell-based, human
Method: as §1, §4

[7] = Body weight loss of xenograft mice; assay type: in vivo; details: before tumor cell injection to day 21
From the text: Animals were weighed before tumor cell injection, and before sacrifice at day 21.

[8] = test system: NIH:OVCAR-5 cells; assay: Tumoricidal response, intraperitoneal ovarian carcinoma xenograft, tumor burden at day 21; details: for Tumor Burden: necropsy day 21; for Survival Fraction: tumor burden relative to no treatment
Method: NIH:OVCAR-5 cells were obtained from the Fox Chase Cancer Institute (Philadelphia, Pa.). Cells were grown in RPMI-1640 media (Mediatech Inc, Herndon, Va.) supplemented with 10% heat-inactivated fetal calf serum (GIBCO Life Technologies, Grand Island, N.Y.), and 100 U/ml penicillin and 100 μg/ml streptomycin. The cells were maintained in an incubator at 37° C. in an atmosphere of 5% CO2. At the time of NIH:OVCAR-5 cell injection, mice were given a numeric ear tag. Animals were anesthetized before the cell injection with 0.03 ml of a ketamine/xylazine mixture (ketamine, 120 mg/kg; xylazine, 15 mg/kg).
Intraperitoneal (“i.p.”) PDT in the nude mice was performed as previously described (Molpus et al., 1996a). On day 10 and 20 after tumor cell injection, mice in BPD treatment and/or control groups 2, 4, 6, and 8 were injected with 0.25 mg/kg body weight of liposomal BPD-MA i.p. 90 minutes prior to light exposure. Light was not administered to animals in groups 1, 2, 5, and 6. BPD-MA solutions were prepared immediately prior to use in sterile PBS (total of 1 ml). All work involving BPD-MA was performed in subdued lighting.
Animals which had to be illuminated were injected with 2 mL of a 0.1% intralipid solution i.p. prior to illumination to enhance light scattering. Animals were anesthetized with 0.03 ml of a ketamine/xylazine mixture (ketamine, 35 mg/ml; xylazine, 5 mg/ml). A solid state diode laser was used for illumination (BWF 690-1, B&W TEK, Newark, Del.), which delivers monochromatic light (690+/−5 nm) to overlap closely the absorption maximum of BPD-MA (690 nm), at a maximum power from the diode of 1 W. Alternatively, an argon-pumped dye laser (Coherent) was used to deliver 690 nm light i.p. via a cylindrically diffusing fiberoptic tip (8.0 mm×0.4 mm). The fiber, connected to the Argon-pumped dye laser or the solid state diode laser was introduced into the peritoneal cavity of a supine anesthetized animal via a centrally placed 22-gauge catheter traversing the abdominal cavity. A total of 20 J of light was delivered, at a fluence rate of 100-200 mw/cm^2. Of the total light energy, one fourth (5 J) was delivered to each i.p. quadrant over equivalent time periods. At the completion of the treatment, the mice were allowed to recover in an animal warmer until they awoke and resumed normal activity.
Two endpoints were studied. The first endpoint studied was short-term tumor weight. The second endpoint studied was long-term survival. In the short-term tumor weight studies, animals were sacrificed on day 21 to assess acute treatment effects. Animals were also carefully examined for the presence of distinct extra-abdominal metastasis. Representative tissue samples were examined pathologically via hematoxylin and eosin staining.
Tumoricidal response was assessed by comparing the extent of gross residual disease in treated animals to the extent of disease in untreated controls. Using the distribution pattern of the tumor in the OVCAR-5 human xenograft mouse model, which 20 was previously described (Molpus et al., 1996b), the sites where tumor was consistently present were dissected.

[9] = test system: EGFR-overexpressing A-431 cells; assay: Phototoxicity and competition studies, MTT assay; assay type: cell-based, human; details: incubation periods much shorter than 6 hours
Method: Preliminary phototoxicity studies were conducted using EGFR-overexpressing A-431 cells.
Cells were plated in 2 ml of media in 35 mm tissue culture dishes at densities such that the cells reached approximately 60 to 80% confluence at the end of a three-day growth period. Following an initial period of at least 14 to 20 hours, which allowed for cells to attach and begin dividing, incubation with PICs or free BPD was initiated by replacing the original 2 ml of media with 2 to 4 ml of medium containing PIC or free BPD. Incubations were done at 37° C. and were begun with respect to the end of the three-day growth period. At the end of the three-day growth period, the medium containing PIC or free BPD was removed. Cells were washed once with 2 ml of DPBS, and 2 ml of fresh medium was added back to each dish. Cells were then immediately irradiated with the requisite light dose. Following irradiation, cells were incubated overnight at 37° C. and then assayed for viability by the calorimetric MTT assay (Mosmann, 1983). Except for the intended light dose, care was taken to protect the cells from light exposure at all times.
The radiation source was a dye laser pumped by an argon ion laser (models CR-599 and Innova 100, respectively, Coherent Inc., Palo Alto, Calif.). […]

[10] = test system: NIH:OVCAR-5 cells; assay: Long term survival, intraperitoneal ovarian carcinoma xenograft; assay type: in vivo, mice
From the text: A different group of animals was utilized to investigate survivability. Animals with rapid tumor progression leading to uncontrollable ascites or systemic illness were sacrificed. Animals were sacrificed based on the following parameters: loss of more than 15% body weight, severe pain not relieved by analgesics, self-mutilating behavior, inability or unwillingness to eat or drink, and weight gain of more than 20% body weight. At the time of necropsy, samples were weighed and collected as previously described.

[11] = test system: CHO-ERBB2 cells; assay: PDT/PIT phototoxicity, MTT assay, CHO-ERBB2 cells; assay type: cell-based; details: 140 nM, light dose of 2 J/cm^2, MTT 24 hours after illumination
Method: as §2, §3

[12] = no light, BPD […] i.p. days 10, 20, C225 0.5 mg i.p. days 11, 14, 17, 19
[13] = with light (20 J, 690 nm i.p.), same doses

BPD Verteporfin
DMSO content above which free BPD goes from predominantly aggregated to predominantly disaggregated monomeric state [1]: > 40%
EGF-induced EGFR phosphorylation ([2]; 140 nM alone, no light): reacted like control cells
EGF-induced EGFR phosphorylation ([2]; 140 nM plus light): did not inhibit; also recorded: no inhibitory effect
increase in MTT activity between the 24 and 72 hours time-point [3]: 15%
weighted-average fluorescence decay lifetime ([4]; emission 700 nm): 6.02 ns
relative fluorescence quantum yield ([4]; excitation 428 nm): 1.00
EGF-induced phosphorylation of MAPK/ERK ([5]; alone, no light): responded like control cells
EGF-induced phosphorylation of MAPK/ERK ([5]; plus light): did not have an inhibitory effect; also recorded: not by treatment with BPD plus light
EGF-induced phosphorylation of Akt-1 ([6]; alone, no light): responded like control cells
EGF-induced phosphorylation of Akt-1 ([6]; plus light): did not have an inhibitory effect; also recorded: not by treatment with BPD plus light
Weight Loss In Grams [7, 12]: 2.01 Grams
Weight Loss In Grams [7, 13]: 2.14 Grams
DL ([8]; Steel-Peckham interaction of the components in the formula, with light (hv)): 0.493
Effect ([8]; Steel-Peckham interaction, with light (hv)): synergistic
lnSF ([8]; no light): −0.4084
Tumor Burden [8, 12]: 469 mg
Survival Fraction ([8]; no light): 0.69
lnSF ([8]; with light): −0.962
Tumor Burden [8, 13]: 261 mg
tumor burden as % of the no treatment control group ([8]; with light, day 21): 38%
tumor burden in the bowel mesentery ([8]; with light, day 21): statistically significant reduction in tumor burden
Survival Fraction ([8]; with light): 0.38
phototoxic cell killing [9]: greater than 90%
survival compared with untreated mice ([10]; comparison of survival curves, PDT and combination with light, C225 alone without): significantly longer survival rates
mice still alive after 6 months (180 days) ([10]; with light, 9 mice per group): 10%
50% alive ([10]; with light, days on which 50% of the mice have died): 36 (CI 32-90) days
viability [11]: less than 20%
